Assay results taken from US10124012B2, “Method for treatment of hyperglycemia and hyperlipidemia” (priority 2016, dated 2018).

Columns and labels:
Format in all cases: in vivo, C57BL/6J mice
[1] = test system: high-fat diet-fed C57BL/6J mouse; experiment: Body weight, tissue weights and food intake in HFD-fed mice; conditions: for Absolute tissue weight Visceral fat: sum of EWAT and RWAT
From the text: (§1) The 4-week old male C57BL/6J mice (total amount n=63) were obtained from the National Laboratory Animal Center (Taipei, Taiwan). After acclimatization for one week, all of the mice were randomly assigned into a control (CON) group and a high-fat diet (HFD) group. […] After HFD feeding for 8 weeks, the HFD group was randomly subdivided into six groups (n=9 per group) receiving different treatments and fed on HFD. […] The HF+AnK1, HF+AnK2, and HF+AnK3 groups are collectively termed AnK-treated HFD groups in the following examples. The CON mice were administered vehicle. All treatments were administered via oral gavage once daily. After administration for 4 weeks, all mice were fasted 12 hours, and blood was collected from the retro-orbital sinus under ether anesthesia. At the end of the experiment, the mice were sacrificed via carbon dioxide inhalation. Liver, adipose tissue, and skeletal muscle were collected and immediately stored at −80° C. for target gene analysis.
The metabolic parameters, including body weight, weight gain, and food intake, were performed as the following. Body weight was daily measured at the same time throughout the study. Body weight gain is considered as the weight difference between two consecutive days. The amount of pellet food was weighted, followed by weighting the amount of remaining food after 24 hours. The difference between the two weights is defined as daily food intake.

[2] = test system: high-fat diet-fed C57BL/6J mouse; experiment: Hepatic lipids in HFD-fed mice
Method: as §1, with “Animal studies” for “The 4-week old male C57BL/6J mice (total amount n=63)”, “performed and approved under” for “obtained from”, “guidelines of the Institutional” for “National Laboratory”, “Care and Use Committee in Taiwan (12 Mar. 2015). […]” for “Center (Taipei, Taiwan).”, “group. For the following 12 weeks, the CON group (n=9) received a control diet or a low-fat diet (Diet 12450B, Research Diets, Inc., New Brunswick, N.J., USA), while the HFD group (n=54) received a high-fat diet (Diet 12451, Research Diets, New Brunswick, N.J., USA).” for “group.”

[3] = test system: G6Pase; experiment: Liver mRNA by semi-quantitative RT-PCR: G6Pase; conditions: HFD-fed mice, oral gavage once daily 4 weeks, AnK 10, 20, 40, Feno 250, Metf 300 mg/kg/day, vs HF group
From the text: as §1, with “At the end of the experiment, the mice were sacrificed via carbon dioxide inhalation. Liver, adipose tissue, and skeletal muscle were collected and immediately stored at −80° C. for target gene analysis.” left out
(§2) Total RNA from liver tissue of mice was isolated with a Trizol Reagent (Molecular Research Center, Inc., Cincinnati, Ohio, USA) according to the manufacturer's instructions. The integrity of the extracted total RNA was examined by 2% agarose gel electrophoresis, and the RNA concentration was determined by the ultraviolet (UV) light absorbency at 260 nm and 280 nm (Spectrophotometer U-2800A, Hitachi). […]
(§3) Levels of mRNA of target genes were quantified by semi-quantitative reverse transcription polymerase chain reaction (RT-PCR). […] PCR products were analyzed by 2% agarose gel and stained with ethidium bromide.

[4] = test system: apoCIII; experiment: Liver mRNA by semi-quantitative RT-PCR: apoCIII; conditions: HFD-fed mice, oral gavage once daily 4 weeks, AnK 10, 20, 40, Feno 250, Metf 300 mg/kg/day, vs HF group
From the text: as §1, with “At the end of the experiment, the mice were sacrificed via carbon dioxide inhalation. Liver, adipose tissue, and skeletal muscle were collected and immediately stored at −80° C. for target gene analysis.” left out
as §2, §3

[5] = test system: membrane GLUT4; experiment: Western blotting of skeletal muscular membrane GLUT4 in HFD-fed mice; conditions: skeletal muscle, AnK 10, 20, 40, Feno 250, Metf 300 mg/kg/day, as compared with the HF group
From the text: as §1
About 0.1 g of liver tissue, skeletal muscle, or adipose tissue was used for the homogenate samples. Samples were powdered under liquid nitrogen and homogenized for 20 seconds in 500 μL buffer containing 20 mM Tris-HCl (pH 7.4 at 4° C.), 2% SDS, 5 mM EDTA, 5 mM EGTA, 1 mM dithiothreitol (DTT), 100 mM NaF, 2 mM sodium vanadate, 0.5 mM phenylmethylsulfonyl fluoride, 10 μg/mL leupeptin, and 10 μL/mL pepstatin. The total membrane fraction was used for measurement. The protein concentration in supernatant was determined with a BCA protein assay kit (Thermo Scientific, Rockford, Ill., USA). […] The membrane was blocked with 5% slim milk in Tris-buffered saline (TBS)(Amersham BioSciences, Uppsala, Sweden) containing 0.05% Tween-20 (Bio Rad, CA, USA) and incubated overnight at 4° C. with antibodies at 1:200 dilution. […] Immunoreactive bands were detected with ECL reagent kit (GE Healthcare BioSciences, Buckinghamshire, UK). The intensity of Western blot signals was analyzed using AlphaEase FC software (Alpha Innotech Corporation, Randburg, South Africa). […]

[6] = HF + AnK1: AnK 10 mg/kg/day oral gavage 4 weeks
[7] = HF + AnK2: AnK 20 mg/kg/day oral gavage 4 weeks
[8] = HF + AnK3: AnK 40 mg/kg/day oral gavage 4 weeks
[9] = HF + Metf: metformin 300 mg/kg/day oral gavage 4 weeks

With `C=C(CC[C@@H](C)[C@H]1CC[C@H]2C3=C(C(=O)C[C@]12C)[C@@]1(C)CC[C@@H](O)[C@](C)(O)[C@@H]1C[C@@H]3O)C(C)C(=O)O` (stereo partly drawn) [AnK, 3α,4β,7β-trihydroxy-4α-methylergosta-8,24(28)-dien-11-on-25S-26-oic acid] the “Absolute tissue weight BAT” value [1, 6] was 0.178 ± 0.007 g, the “Absolute tissue weight EWAT” value [1, 6] was 0.867 ± 0.065 g and the “Absolute tissue weight Liver” value [1, 6] was 0.946 ± 0.030 g. The “Absolute tissue weight MWAT” value [1, 6] was 0.349 ± 0.020 g, the “Absolute tissue weight RWAT” value [1, 6] was 0.323 ± 0.039 g and the “Absolute tissue weight Skeletal muscle” value [1, 6] was 0.395 ± 0.036 g. The “Absolute tissue weight Spleen” value [1, 6] was 0.090 ± 0.003 g, the Final body weight [1, 6] was 28.30 ± 0.61 g and the Food intake [1, 6] was 1.95 ± 0.05 g/day/mouse. For the same compound, the Weight gain [1, 6] was 1.39 ± 0.81 g, the “Absolute tissue weight BAT” value [1, 7] was 0.172 ± 0.010 g and the “Absolute tissue weight EWAT” value [1, 7] was 0.841 ± 0.062 g. For the same compound, the “Absolute tissue weight Liver” value [1, 7] was 0.888 ± 0.019 g, the “Absolute tissue weight MWAT” value [1, 7] was 0.340 ± 0.013 g and the “Absolute tissue weight RWAT” value [1, 7] was 0.339 ± 0.031 g. The “Absolute tissue weight Skeletal muscle” value [1, 7] was 0.364 ± 0.022 g, the “Absolute tissue weight Spleen” value [1, 7] was 0.085 ± 0.003 g and the Final body weight [1, 7] was 27.55 ± 0.72 g. For the same compound, the Food intake [1, 7] was 1.92 ± 0.07 g/day/mouse, the Weight gain [1, 7] was 0.70 ± 0.86 g and the “Absolute tissue weight BAT” value [1, 8] was 0.175 ± 0.008 g. The “Absolute tissue weight EWAT” value [1, 8] was 0.809 ± 0.058 g, the “Absolute tissue weight Liver” value [1, 8] was 0.883 ± 0.018 g and the “Absolute tissue weight MWAT” value [1, 8] was 0.332 ± 0.025 g. For the same compound, the “Absolute tissue weight RWAT” value [1, 8] was 0.306 ± 0.040 g, the “Absolute tissue weight Skeletal muscle” value [1, 8] was 0.364 ± 0.028 g and the “Absolute tissue weight Spleen” value [1, 8] was 0.104 ± 0.007 g. The Final body weight [1, 8] was 27.48 ± 0.46 g, the Food intake [1, 8] was 1.98 ± 0.04 g/day/mouse and the Weight gain [1, 8] was 0.58 ± 0.35 g. For the same compound, the “Absolute tissue weight Visceral fat” value [1, 6] was 1.190 ± 0.093 g, the “Absolute tissue weight Visceral fat” value [1, 7] was 1.180 ± 0.106 g and the “Absolute tissue weight Visceral fat” value [1, 8] was 1.154 ± 0.096 g. The “Liver lipids total lipid” value [2, 6] was 73.1 ± 4.7 mg/g, the Liver lipids triacylglycerol [2, 6] was 56.3 ± 4.2 µmol/g and the “Liver lipids total lipid” value [2, 7] was 66.0 ± 4.8 mg/g. For the same compound, the Liver lipids triacylglycerol [2, 7] was 45.7 ± 3.9 µmol/g, the “Liver lipids total lipid” value [2, 8] was 64.5 ± 5.2 mg/g and the Liver lipids triacylglycerol [2, 8] was 45.2 ± 4.6 µmol/g. The “mRNA levels of G6Pase” value [3] was “significantly decreased”, the “mRNA levels of apoCIII” value [4] was “significantly decreased” and the “increase of membrane GLUT4 levels” value [5] was 1.52-2.20 fold.

With `CN(C)C(=N)N=C(N)N` [Metf, metformin, reference compound] the “Absolute tissue weight BAT” value [1, 9] was 0.220 ± 0.025 g, the “Absolute tissue weight EWAT” value [1, 9] was 0.813 ± 0.064 g and the “Absolute tissue weight Liver” value [1, 9] was 0.908 ± 0.031 g. For the same compound, the “Absolute tissue weight MWAT” value [1, 9] was 0.270 ± 0.018 g, the “Absolute tissue weight RWAT” value [1, 9] was 0.298 ± 0.027 g and the “Absolute tissue weight Skeletal muscle” value [1, 9] was 0.380 ± 0.025 g. For the same compound, the “Absolute tissue weight Spleen” value [1, 9] was 0.093 ± 0.006 g, the Final body weight [1, 9] was 27.86 ± 0.72 g and the Food intake [1, 9] was 1.89 ± 0.04 g/day/mouse. For the same compound, the Weight gain [1, 9] was 0.92 ± 0.08 g, the “Absolute tissue weight Visceral fat” value [1, 9] was 1.111 ± 0.077 g and the “Liver lipids total lipid” value [2, 9] was 65.3 ± 4.9 mg/g. The Liver lipids triacylglycerol [2, 9] was 45.4 ± 4.2 µmol/g, the “mRNA levels of G6Pase” value [3] was “significantly decreased” and the “mRNA levels of apoCIII” value [4] was “significantly decreased”. The “increase of membrane GLUT4 levels” value [5] was 1.86 fold.
